Results published in patent US9409952B2, “Peptide-compound cyclization method” (Chugai Seiyaku Kabushiki Kaisha, priority 2011, dated 2016).
Read-outs that look alike come from different tables or passages of the source. Starred links: 1 amine or outer side, 2 acyl side, 3 side chain; linkers in the order of their positions; H or OH if unused. Positions of bridges follow the written chain, without caps; N, C: chain ends. Non-standard residues stand in square brackets, D forms with d. Residues, ends and D or L forms follow the SMILES beside them. *: point of attachment. Phe(3-(CH2)4CO) = O=C([C@H](Cc1cccc(CCCCC(=O)[*:3])c1)N[*:1])[*:2]; NMePhe(3-Cl) = CN[C@@H](Cc1cccc(Cl)c1)C(=O)O; NMeF = CN[C@@H](Cc1ccccc1)C(=O)O; NMeI = CC[C@H](C)[C@H](NC)C(=O)O; NMeβAla = CN(CCC(=O)[*:2])[*:1]; NMeL = CN[C@@H](CC(C)C)C(=O)O; NMeV = CN[C@H](C(=O)O)C(C)C; NMeA = CN[C@@H](C)C(=O)O; Piperidide = C1CCN(*)CC1; dNMeA = CN[C@H](C)C(=O)O; β3hA = C[C@H](N)CC(=O)O; Sar = CNCC(=O)O; tBu = CC(C)(C)*

Experiments:
[1] = PAMPA (parallel artificial membrane permeability assay); assay type: in vitro ADME; conditions: PAMPA
Procedure, shortened: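 Artificial membrane was 10% (w/v) egg lecithin plus 0.5% (w/v) cholesterol in dodecane on a PVDF filter. A 10 mM DMSO stock was added at 0.5% (v/v) to donor buffer (50 mM MOPSO, pH 6.5, 5.0% glycocholic acid). After 18 h at 37 °C, LC/MS or LC/UV gave donor and acceptor levels for Pe.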

[2] = Metabolic stability in human hepatic microsome; assay type: in vitro ADME; conditions: microsomes
[3] = membrane permeation rate (Pe), 50 mM MOPSO buffer pH 6.5 with 5.0% glycocholic acid, 37° C., 18 hours, read-out: iPAMPA Pe
[4] = pH 7.4, human hepatic microsome, NADPH(+), read-out: CL NADPH(+)

Compound | Papp at 18 hours, 50 µM [1, 3] [×10⁻⁶ cm/s] | microsomal CLint at 1 uM [2, 4] [µL/min/mg] | Papp at 18 hours, 50 µM ([1]; pH 6.5) [×10⁻⁶ cm/s] | microsomal CLint at 1 uM ([2]; human, pH 7.4, CL NADPH(+)) [µL/min/mg]
CC(C)C[C@@H]1NC(=O)[C@H](C)NC(=O)C[C@@H](C(=O)N(C)[C@@H](C)C(=O)N[C@H](C(=O)N(C)[C@@H](Cc2ccccc2)C(=O)N(C)[C@@H](CC(C)C)C(=O)N[C@@H](C)C(=O)N2CCCCC2)[C@@H](C)O)NC(=O)[C@H](Cc2ccccc2)N(C)C(=O)[C@H](CC(C)C)N(C)C(=O)[C@H](C)NC(=O)[C@H](Cc2ccccc2)N(C)C(=O)[C@H](CC(C)C)N(C)C1=O [DP-574] (AL[NMeL][NMeF]A[NMeL][NMeF]D[NMeA]T[NMeF][NMeL]A-Piperidide; lactam N-8) | 1.2 | 113 |  | 
CC[C@H](C)[C@@H]1NC(=O)[C@H](CC(C)C)N(C)C(=O)[C@H](Cc2ccccc2)N(C)C(=O)CCCCc2cccc(c2)C[C@@H](C(=O)N2CCCCC2)NC(=O)[C@H](CC(C)C)N(C)C(=O)[C@H](C)N(C)C(=O)[C@H]([C@@H](C)O)NC(=O)[C@H](Cc2ccccc2)N(C)C(=O)[C@H](C)N(C)C1=O [DP-836] ([NMeF][NMeL]I[NMeA][NMeF]T[NMeA][NMeL][Phe(3-(CH2)4CO)]-Piperidide; lactam N-9) | 18 | 552 |  | 
CC[C@H](C)[C@@H]1NC(=O)[C@H](CC(C)C)N(C)C(=O)[C@@H](C(C)C)NC(=O)C[C@H](C)NC(=O)[C@H](CC(C)C)N(C)C(=O)[C@H](C)N(C)C(=O)[C@H]([C@@H](C)O)NC(=O)[C@H](Cc2cccc(Cl)c2)N(C)C(=O)[C@H](C)N(C)C1=O [DP-828] (cyclo(I[NMeA][NMePhe(3-Cl)]T[NMeA][NMeL][β3hA][dV][NMeL])) | 42 | 154 |  | 
CC(C)C[C@H]1C(=O)N[C@H](C(=O)N(C)[C@@H](Cc2ccccc2)C(=O)N(C)[C@@H](Cc2ccccc2)C(=O)N[C@@H](C)C(=O)N2CCCCC2)CC(=O)N(C)CCC(=O)N[C@@H](C)C(=O)N(C)[C@@H](Cc2ccccc2)C(=O)N(C)[C@@H](C(C)C)C(=O)NCC(=O)N[C@@H]([C@@H](C)O)C(=O)N(C)[C@@H](C)C(=O)N[C@@H](C(C)C)C(=O)N1C [DP-391] ([NMeβAla]A[NMeF][NMeV]GT[NMeA]V[NMeL]D[NMeF][NMeF]A-Piperidide; lactam N-10) | 4.5 | 14 |  | 
CC(C)C[C@H]1C(=O)N(C)[C@@H](Cc2ccccc2)C(=O)N(C)[C@@H](Cc2ccccc2)C(=O)NCC(=O)N(C)[C@@H](C)C(=O)N[C@@H]([C@@H](C)O)C(=O)N[C@H](C(=O)N(C)[C@@H](Cc2ccccc2)C(=O)N(C)[C@@H](Cc2ccccc2)C(=O)N[C@@H](C)C(=O)N2CCCCC2)CC(=O)N(C)[C@@H](C)C(=O)N[C@@H](C(C)C)C(=O)N1C [DP-309] ([NMeA]V[NMeL][NMeF][NMeF]G[NMeA]TD[NMeF][NMeF]A-Piperidide; lactam N-9) |  |  | 26 | 212
CC[C@H](C)[C@H](NC(=O)[C@@H](NC(=O)[C@H](Cc1ccccc1)NC(=O)[C@H](CC(C)C)N(C)C(=O)[C@@H]1CC(=O)N(C)CCC(=O)N(C)[C@@H](C)C(=O)N[C@@H](CC(C)C)C(=O)N[C@@H]([C@@H](C)O)C(=O)N(C)[C@@H](Cc2ccccc2)C(=O)N(C)[C@@H](CC(C)C)C(=O)N(C)[C@@H](Cc2ccccc2)C(=O)N1)C(C)C)C(=O)N1CCCCC1 [DP-930] ([NMeβAla][NMeA]LT[NMeF][NMeL][NMeF]D[NMeL]FVI-Piperidide; lactam N-8) | 0.46 | 168 |  | 
CC[C@H](C)[C@@H]1NC(=O)[C@H](CC(C)C)N(C)C(=O)[C@H](CC(C)C)NC(=O)[C@H](Cc2ccccc2)NC(=O)[C@H]([C@@H](C)O)NC(=O)[C@H](Cc2ccccc2)NC(=O)[C@@H](C)N(C)C(=O)C[C@@H](C(=O)N2CCCCC2)NC(=O)CNC(=O)[C@H](Cc2ccccc2)NC1=O [DP-431] ([dNMeA]FTFL[NMeL]IFGD-Piperidide; lactam N-10) | 34 | 239 |  | 
CC(C)C[C@@H]1NC(=O)[C@H](Cc2ccccc2)N(C)C(=O)[C@H](C)N(C)C(=O)C[C@@H](C(=O)N2CCCCC2)NC(=O)[C@H](Cc2ccccc2)N(C)C(=O)[C@H](C)N(C)C(=O)[C@H]([C@@H](C)O)NC(=O)CN(C)C(=O)[C@H](C)N(C)C(=O)[C@H](C)NC(=O)[C@H](C(C)C)N(C)C(=O)[C@H](CC(C)C)N(C)C1=O [DP-469] ([NMeA][NMeF]L[NMeL][NMeV]A[NMeA][Sar]T[NMeA][NMeF]D-Piperidide; lactam N-12) | 14 | 23 |  | 
CC[C@H](C)[C@H]1C(=O)N[C@@H](C)CC(=O)N(C)[C@H](C)C(=O)N(C)[C@@H](Cc2ccccc2)C(=O)N(C)[C@@H](CC(C)C)C(=O)N[C@@H]([C@@H](C)O)C(=O)N(C)CC(=O)N[C@@H](COC(C)(C)C)C(=O)N(C)[C@@H](CC(C)C)C(=O)N1C [DP-789] (cyclo([NMeF][NMeL]T[Sar]S(tBu)[NMeL][NMeI][β3hA][dNMeA])) | 35 | 113 |  | 
